Test results published in patent US9096518B2, “Substituted hydroxamic acids and uses thereof” (Millennium Pharmaceuticals, Inc., priority 2009, dated 2015).

Biological target: T1, purified human HDAC6 (Homo sapiens, UniProt Q9UBN7)
T1 construct: purchased BPS Bioscience 5006
T1 sequence (Q9UBN7 1-1215): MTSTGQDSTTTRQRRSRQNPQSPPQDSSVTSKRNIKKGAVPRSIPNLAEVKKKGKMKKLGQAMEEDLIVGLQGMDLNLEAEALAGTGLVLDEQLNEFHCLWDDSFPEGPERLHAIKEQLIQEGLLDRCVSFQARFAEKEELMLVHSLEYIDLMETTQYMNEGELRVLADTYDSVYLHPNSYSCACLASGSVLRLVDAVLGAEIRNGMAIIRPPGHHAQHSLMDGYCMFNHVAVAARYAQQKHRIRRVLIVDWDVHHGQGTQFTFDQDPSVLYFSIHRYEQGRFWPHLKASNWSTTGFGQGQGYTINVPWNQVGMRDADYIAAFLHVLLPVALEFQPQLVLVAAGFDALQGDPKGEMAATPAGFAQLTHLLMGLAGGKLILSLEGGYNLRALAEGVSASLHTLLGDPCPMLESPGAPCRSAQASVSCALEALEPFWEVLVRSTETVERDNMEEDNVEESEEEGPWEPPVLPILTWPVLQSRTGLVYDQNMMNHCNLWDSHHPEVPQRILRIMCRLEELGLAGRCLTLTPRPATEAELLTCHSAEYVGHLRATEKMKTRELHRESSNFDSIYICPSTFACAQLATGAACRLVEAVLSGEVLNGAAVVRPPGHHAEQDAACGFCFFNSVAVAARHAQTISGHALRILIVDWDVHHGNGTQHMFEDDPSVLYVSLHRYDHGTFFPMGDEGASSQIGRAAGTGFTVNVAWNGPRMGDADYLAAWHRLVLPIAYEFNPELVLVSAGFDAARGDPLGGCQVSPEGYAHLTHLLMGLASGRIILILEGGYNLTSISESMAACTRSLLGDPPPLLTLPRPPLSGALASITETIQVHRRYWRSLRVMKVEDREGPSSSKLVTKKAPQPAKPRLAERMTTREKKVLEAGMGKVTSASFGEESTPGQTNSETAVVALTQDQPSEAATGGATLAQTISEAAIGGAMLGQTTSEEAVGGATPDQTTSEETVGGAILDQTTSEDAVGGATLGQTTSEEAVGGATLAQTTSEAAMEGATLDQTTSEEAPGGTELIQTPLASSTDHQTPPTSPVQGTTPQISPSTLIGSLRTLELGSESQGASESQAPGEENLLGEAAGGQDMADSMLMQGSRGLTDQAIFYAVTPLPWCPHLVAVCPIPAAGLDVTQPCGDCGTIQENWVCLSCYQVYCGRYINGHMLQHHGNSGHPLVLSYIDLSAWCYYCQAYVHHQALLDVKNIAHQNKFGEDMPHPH
Assay: HDAC6 Enzyme Assay
Type: biochemical
Experimental: To measure the inhibition of HDAC6 activity, purified human HDAC6 (BPS Bioscience; Cat. No. 5006) is incubated with substrate Ac-Arg-Gly-Lys(Ac)-AMC peptide (Bachem Biosciences; Cat. No. I-1925) for 1 hour at 30° C. in the presence of test compounds or vehicle DMSO control. The reaction is stopped with the HDAC inhibitor trichostatin A (Sigma; Cat. No. T8552) and the amount of Arg-Gly-Lys-AMC generated is quantitated by digestion with trypsin (Sigma; Cat. No. T1426) and subsequent measurement of the amount of AMC released using a fluorescent plate reader (Pherastar; BMG Technologies) set at Ex 340 nm and Em 460 nm. Concentration response curves are generated by calculating the fluorescence increase in test compound-treated samples relative to DMSO-treated controls, and enzyme inhibition (IC50) values are determined from those curves.

SMILES	IC50 [nM]
O=C(NO)c1ccc2c(c1)CCN(Cc1ccc(-n3cccn3)cc1)C2 [Compound 68, N-hydroxy-2-[4-(1H-pyrazol-1-yl)benzyl]-1,2,3,4-tetrahydroisoquinoline-6-carboxamide]	100 to 500
O=C(NO)c1ccc2c(c1)CCN(Cc1cccc3nsnc13)C2 [Compound 69, 2-(2,1,3-benzothiadiazol-4-ylmethyl)-N-hydroxy-1,2,3,4-tetrahydroisoquinoline-6-carboxamide]	100 to 500
O=C(NO)c1ccc2c(c1)CCN(Cc1nc(-c3ccc(Cl)cc3)no1)C2 [Compound 71, 2-{[3-(4-chlorophenyl)-1,2,4-oxadiazol-5-yl]methyl}-N-hydroxy-1,2,3,4-tetrahydroisoquinoline-6-carboxamide]	50 to 100
COc1ccccc1-c1nc(CN2CCc3cc(C(=O)NO)ccc3C2)no1 [Compound 72, N-hydroxy-2-{[5-(2-methoxyphenyl)-1,2,4-oxadiazol-3-yl]methyl}-1,2,3,4-tetrahydroisoquinoline-6-carboxamide]	< 50
O=C(NO)c1ccc2c(c1)CCN(CCC(=O)N1CCc3ccccc31)C2 [Compound 73, 2-[3-(2,3-dihydro-1H-indol-1-yl)-3-oxopropyl]-N-hydroxy-1,2,3,4-tetrahydroisoquinoline-6-carboxamide]	50 to 100
O=C(NO)c1ccc2c(c1)CCN(Cc1nccn1Cc1ccccc1)C2 [Compound 74, 2-[(1-benzyl-1H-imidazol-2-yl)methyl]-N-hydroxy-1,2,3,4-tetrahydroisoquinoline-6-carboxamide]	> 500
O=C(NO)c1ccc2c(c1)CCN(c1nc(-c3ccc4c(c3)OCCO4)cs1)C2 [Compound 75, 2-[4-(2,3-dihydro-1,4-benzodioxin-6-yl)-1,3-thiazol-2-yl]-N-hydroxy-1,2,3,4-tetrahydroisoquinoline-6-carboxamide]	< 50
Cc1c(-c2csc(N3CCc4cc(C(=O)NO)ccc4C3)n2)sc2ccccc12 [Compound 76, N-hydroxy-2-[4-(3-methyl-1-benzothien-2-yl)-1,3-thiazol-2-yl]-1,2,3,4-tetrahydroisoquinoline-6-carboxamide]	50 to 100
O=C(NO)c1ccc2c(c1)CCN(c1nc(-c3cccc(Cl)c3)cs1)C2 [Compound 77, 2-[4-(3-chlorophenyl)-1,3-thiazol-2-yl]-N-hydroxy-1,2,3,4-tetrahydroisoquinoline-6-carboxamide]	< 50
Cn1cccc1C(=O)N1Cc2ccc(C(=O)NO)cc2C1 [Compound 78, N-hydroxy-2-[(1-methyl-1H-pyrrol-2-yl)carbonyl]isoindoline-5-carboxamide]	< 50
COc1cc(Cl)ccc1C(=O)N1Cc2ccc(C(=O)NO)cc2C1 [Compound 79, 2-(4-chloro-2-methoxybenzoyl)-N-hydroxyisoindoline-5-carboxamide]	< 50
CC(C)(C(=O)N1Cc2ccc(C(=O)NO)cc2C1)c1ccc(Cl)cc1 [Compound 80, 2-[2-(4-chlorophenyl)-2-methylpropanoyl]-N-hydroxyisoindoline-5-carboxamide]	< 50
CC(C)(C)C(=O)N1Cc2ccc(C(=O)NO)cc2C1 [Compound 81, 2-(2,2-dimethylpropanoyl)-N-hydroxyisoindoline-5-carboxamide]	50 to 100
CC(C)(C)C(=O)N1CCCc2cc(C(=O)NO)ccc2C1 [Compound 82, 2-(2,2-dimethylpropanoyl)-N-hydroxy-2,3,4,5-tetrahydro-1H-2-benzazepine-7-carboxamide]	100 to 500
Cn1cccc1C(=O)N1CCCc2cc(C(=O)NO)ccc2C1 [Compound 83, N-hydroxy-2-[(1-methyl-1H-pyrrol-2-yl)carbonyl]-2,3,4,5-tetrahydro-1H-2-benzazepine-7-carboxamide]	100 to 500
O=C(NO)c1ccc2c(c1)CCCN(C(=O)c1ccc(C(F)(F)F)cc1)C2 [Compound 84, N-hydroxy-2-[4-(trifluoromethyl)benzoyl]-2,3,4,5-tetrahydro-1H-2-benzazepine-7-carboxamide]	> 500

SMILES	IC50 [nM]
CC(C)(C)C(=O)N1CCc2ccc(C(=O)NO)cc2CC1 [Compound 85, 3-(2,2-dimethylpropanoyl)-N-hydroxy-2,3,4,5-tetrahydro-1H-3-benzazepine-7-carboxamide]	100 to 500
Cn1cccc1C(=O)N1CCc2ccc(C(=O)NO)cc2CC1 [Compound 86, N-hydroxy-3-[(1-methyl-1H-pyrrol-2-yl)carbonyl]-2,3,4,5-tetrahydro-1H-3-benzazepine-7-carboxamide]	100 to 500
O=C(NO)c1ccc2c(c1)CCN(C(=O)c1ccc(C(F)(F)F)cc1)CC2 [Compound 87, N-hydroxy-3-[4-(trifluoromethyl)benzoyl]-2,3,4,5-tetrahydro-1H-3-benzazepine-7-carboxamide]	100 to 500
CC(C)(C(=O)N1CCc2ccc(C(=O)NO)cc2CC1)c1ccc(Cl)cc1 [Compound 88, 3-[2-(4-chlorophenyl)-2-methylpropanoyl]-N-hydroxy-2,3,4,5-tetrahydro-1H-3-benzazepine-7-carboxamide]	< 50
O=C(NO)c1ccc2c(c1)CCN(C(=O)Nc1ccc3c(c1)CCO3)C2 [Compound 89, N^2-(2,3-dihydro-1-benzofuran-5-yl)-N^6-hydroxy-3,4-dihydroisoquinoline-2,6(1H)-dicarboxamide]	< 50
O=C(NO)c1ccc2c(c1)CCN(C(=O)Nc1ccc3c(c1)OCO3)C2 [Compound 90, N^2-1,3-benzodioxol-5-yl-N^6-hydroxy-3,4-dihydroisoquinoline-2,6(1H)-dicarboxamide]	< 50
O=C(NO)c1ccc2c(c1)CCN(C(=O)NCCc1ccccc1)C2 [Compound 91, N^6-hydroxy-N^2-(2-phenylethyl)-3,4-dihydroisoquinoline-2,6(1H)-dicarboxamide]	< 50
O=C(NO)c1ccc2c(c1)CCN(C(=O)Nc1ccc(OC(F)(F)F)cc1)C2 [Compound 92, N^6-hydroxy-N^2-[4-(trifluoromethoxy)phenyl]-3,4-dihydroisoquinoline-2,6(1H)-dicarboxamide]	< 50
CCC(C)NC(=O)N1CCc2cc(C(=O)NO)ccc2C1 (centres unmarked) [Compound 93, N^2-(sec-butyl)-N^6-hydroxy-3,4-dihydroisoquinoline-2,6(1H)-dicarboxamide]	< 50
CCc1cccc(C)c1NC(=O)N1CCc2cc(C(=O)NO)ccc2C1 [Compound 94, N^2-(2-ethyl-6-methylphenyl)-N^6-hydroxy-3,4-dihydroisoquinoline-2,6(1H)-dicarboxamide]	< 50
O=C(NO)c1ccc2c(c1)CCN(C(=O)Nc1ccc(-c3ccccc3)s1)C2 [Compound 95, N^6-hydroxy-N^2-(5-phenyl-2-thienyl)-3,4-dihydroisoquinoline-2,6(1H)-dicarboxamide]	< 50
CC(C)(C)c1ccccc1NC(=O)N1CCc2cc(C(=O)NO)ccc2C1 [Compound 96, N^2-(2-tert-butylphenyl)-N^6-hydroxy-3,4-dihydroisoquinoline-2,6(1H)-dicarboxamide]	< 50
CCCNC(=O)N1CCc2cc(C(=O)NO)ccc2C1 [Compound 97, N^6-hydroxy-N^2-propyl-3,4-dihydroisoquinoline-2,6(1H)-dicarboxamide]	50 to 100
O=C(NO)c1ccc2c(c1)CCN(C(=O)Nc1cccc(C(F)(F)F)c1)C2 [Compound 98, N^6-hydroxy-N^2-[3-(trifluoromethyl)phenyl]-3,4-dihydroisoquinoline-2,6(1H)-dicarboxamide]	< 50
O=C(NO)c1ccc2c(c1)CCN(C(=O)Nc1ccc(Cc3ccccc3)cc1)C2 [Compound 99, N^2-(4-benzylphenyl)-N^6-hydroxy-3,4-dihydroisoquinoline-2,6(1H)-dicarboxamide]	< 50
O=C(NO)c1ccc2c(c1)CCN(C(=O)Nc1cccc3ccccc13)C2 [Compound 100, N^6-hydroxy-N^2-1-naphthyl-3,4-dihydroisoquinoline-2,6(1H)-dicarboxamide]	< 50
